According to PubChem BioAssay (NCI):
Several values for one entry are separate records, joined by “and”; a condition that tells them apart may be missing. Identical values can stand only once.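 Five compound concentrations were applied to cells in 96-well plates for 48 hours; endpoints were derived by simple linear interpolation of the resulting dose-response curve. At the GI50, growth is halved. TGI: total growth inhibition.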

Experiments:
Experiment in all cases: inhibition of tumour cell growth, NCI panel, 48 h
MALME-3M melanoma = system: MALME-3M melanoma
SF-268 CNS = system: SF-268 CNS
SK-OV-3 ovarian = system: SK-OV-3 ovarian
EKVX NSCLC = system: EKVX NSCLC
MOLT-4 leukemia = system: MOLT-4 leukemia
MDA-MB-231 breast = system: MDA-MB-231 breast
HCC-2998 colon = system: HCC-2998 colon
UO-31 renal = system: UO-31 renal

| Structure (SMILES) | GI50 (MALME-3M melanoma) [µM] | TGI (MALME-3M melanoma) | GI50 (SF-268 CNS) | TGI (SF-268 CNS) [µM] | GI50 (SK-OV-3 ovarian) | TGI (SK-OV-3 ovarian) [µM] | GI50 (EKVX NSCLC) | TGI (EKVX NSCLC) [µM] | GI50 (MOLT-4 leukemia) | TGI (MOLT-4 leukemia) | GI50 (MDA-MB-231 breast) | TGI (MDA-MB-231 breast) | GI50 (HCC-2998 colon) | TGI (HCC-2998 colon) [µM] | GI50 (UO-31 renal) [µM] | TGI (UO-31 renal) |
| --- | --- | --- | --- | --- | --- | --- | --- | --- | --- | --- | --- | --- | --- | --- | --- | --- |
| Cc1cc(S(=O)(=O)Nc2n[nH]c(-c3ccc(Cl)cc3)c2C#N)c(S)cc1Cl | > 100 | > 100 µM | > 100 µM | > 100 | > 100 µM | > 100 | > 100 µM | > 100 | > 100 µM | > 100 µM | > 100 µM | > 100 µM | 95.5 µM | > 100 | > 100 | > 100 µM |
| CCOC(=O)Cc1csc(Nc2nc(O)c(C3=c4ccccc4=NC3=O)s2)n1 | 25.5 | 78.4 µM | 34.6 µM | > 100 | 31.1 µM | 67.6 | 77.6 µM | > 100 | 36.7 µM | 88.9 µM | 29.1 µM | 72.1 µM | 29.8 µM | > 100 | 23 | 51.6 µM |
| COc1c(O)cc2c(c1CC=C(C)C)OC(=O)c1c(cc(O)c(CC=C(C)C)c1O)O2 | 4.62 | 8.7 µM | 4.26 µM | 7.82 | 4.44 µM | 8.01 | 4.67 µM | 8.74 | 4.1 µM | 12.7 µM | 4.23 µM | 8.46 µM | 2.56 µM | 5.72 | 4.22 | 7.79 µM |
| CC(=O)N[C@@H](Cc1ccc(OP(=O)(O)O)cc1)C(=O)N[C@H]1CCC(=O)N2CCC[C@@H](C(=O)NCc3cccc4ccccc34)N2C1=O | > 25 | > 25 µM | > 25 µM | > 25 | > 25 µM | > 25 |  |  | > 25 µM | > 25 µM | > 25 µM | > 25 µM | > 25 µM | > 25 | > 25 | > 25 µM |
| COC(=O)CC12CC(NC(=O)c3csc([C@@H](C[C@H](C(C)C)N(C)C(=O)[C@@H](NC(=O)[C@H]4CCCCN4C)C(C)C)OC(C)=O)n3)(C1)C2 | 0.00491 |  | 0.0074 µM and 0.0204 µM | > 33.3 | 0.00439 µM and 0.0105 µM | > 33.3 | 0.00949 µM and 0.0229 µM | > 33.3 | 0.00615 µM and 0.0143 µM | > 33.3 µM | 0.00661 µM and 0.0152 µM | 0.0958 µM and 0.515 µM | 0.0303 µM and 0.0148 µM | > 33.3 |  | > 33.3 µM |
| CN(CCNc1ccc(C(=N)N)cc1)c1ccc(C(=N)N)cc1 | 26.6 | > 100 µM | 37.8 µM | > 100 | 34.5 µM | > 100 | 20 µM | > 100 | > 100 µM | > 100 µM | > 100 µM | > 100 µM | 97.3 µM | > 100 | 54.8 | > 100 µM |
| N#CC1(C#N)C2C=CC(C3CC=CC32)C1(C#N)C#N (stereo unspecified) | 6.13 | 6.16 µM and 13.1 µM |  | 22.6 |  | > 50 |  | 24 | 1.2 µM | 3.5 µM and 3.55 µM |  | 17.2 µM |  | > 50 | 1.07 | 3.67 µM and 1.85 µM |
| CC(C)[C@]12O[C@H]1[C@@H]1O[C@]13[C@]1(O[C@H]1C[C@H]1C4=C(CC[C@@]13C)C(=O)OC4)[C@@H]2OC(=O)OC(C)(C)C | 0.0166 | 0.0555 µM | 0.0251 µM | 0.26 | 0.0402 µM | > 100 | 0.0573 µM | > 100 | 0.0156 µM |  | 0.0543 µM | > 100 µM | 0.0166 µM | 0.064 | 0.0164 | > 100 µM |
| CSc1nc(SC)c2cnn(-c3ccnc4cc(Cl)ccc34)c2n1 | 32.9 | > 100 µM | 19.7 µM | 58.1 | > 81.1 µM | > 100 | 25.9 µM | 70.5 | 42.5 µM | > 89.6 µM | 20 µM | 67.4 µM | 82.7 µM | > 100 | > 100 | > 100 µM |
| COc1ccc(C(=O)O[C@@H]2CCN3CC[C@H](C)[C@H]23)cc1 |  |  |  | > 100 |  | > 100 |  | > 100 |  | > 100 µM |  | > 100 µM |  |  |  | > 100 µM |
| Nc1cc2c(c3ccccc13)C(CCl)CN2C(=O)c1cc2cc(NC(=O)c3cc4ccccc4o3)ccc2[nH]1 (stereo unspecified) | > 0.11 | 0.00771 µM and < 0.11 µM |  |  |  | 5.5 |  | 0.43 |  |  | > 0.11 µM | > 1100 µM |  | 0.675 |  |  |
| CCOC(=O)c1c2c(n(Cc3ccccc3)c1C)-c1nc[nH]c1C(=O)C2=O | 11.3 | 23.9 µM | 17.1 µM | 31.2 | 19.5 µM | 33.6 | 17.8 µM | 32 | 2.84 µM | 10.3 µM | 13.1 µM | 28.3 µM |  |  | 14.7 | 28.4 µM |
| CCOC(=O)c1cc2c(OC)cc(OC)cc2oc1=O |  | > 100 µM |  | > 100 |  |  |  | > 100 |  | > 100 µM |  | > 100 µM |  | > 100 |  |  |
| ClCCN(CCCl)c1ccc(OCc2ccccc2)cc1 | 10.2 | 34.4 µM | 2.07 µM | 22.5 | 7.85 µM | 61.4 |  |  | 1.74 µM | 40 µM | 16.6 µM | 48.6 µM |  |  | 3.99 | 41.4 µM |
| COc1ccc(/C=C/C(=O)c2ccc(B(O)O)cc2)cc1O | 32.3 | > 100 µM | 19.9 µM | 78.8 | 22.2 µM | > 89.1 |  |  | 10.9 µM | > 100 µM | 20.2 µM | > 85 µM | 6.46 µM | 18.6 | 16.7 | > 92.8 µM |
| COc1ncnn2ccc(-c3cnc4nc(C)n(Cc5nnc(C(C)F)o5)c4c3)c12 (stereo unspecified) | 0.264 | 0.75 µM | 0.526 µM | > 80.5 | 0.0716 µM | > 100 | 0.272 µM | > 36.4 | 0.231 µM | > 20.8 µM | 0.278 µM | 27 µM | 0.308 µM | 2.71 |  |  |
| Nc1nc(N)c2cc(Sc3ccc(Cl)cc3)ccc2n1 | 1.25 | 3.27 µM | 0.898 µM | 18 |  |  | 1.66 µM | 17.6 | 1.9 µM | 11.1 µM | 1.72 µM | 4.21 µM | 1.08 µM | 2.43 | 2.43 | 16.1 µM |
